# Read-outs that look alike come from different tables or passages of the source.
# Legend:
# [1] = molecular target: T1, σ2 receptor (Rattus norvegicus, UniProt Q5U3Y7); experiment: σ2 receptor binding affinity, competition against [3H]DTG; settings: for Selectivity ratio VAChT/ σ2: ratio of Ki values, Table 2; for Ki: read-out: Ki σ2, homogenate of rat liver, tested as oxalate, mean ± SD
# T1 sequence (Q5U3Y7 1-176): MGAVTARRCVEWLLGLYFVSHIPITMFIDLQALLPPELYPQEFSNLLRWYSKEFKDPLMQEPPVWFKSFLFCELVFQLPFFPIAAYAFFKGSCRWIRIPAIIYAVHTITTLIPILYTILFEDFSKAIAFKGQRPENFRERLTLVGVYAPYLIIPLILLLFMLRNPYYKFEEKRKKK
# [2] = molecular target: T2, σ1 receptor (Cavia porcellus, UniProt Q60492); experiment: σ1 receptor binding affinity, competition against; parameters: species or system guinea pig; settings: for Selectivity ratio VAChT/ σ1: ratio of Ki values, Table 2; for Ki: read-out: Ki σ1, homogenate of guinea pig brain, tested as oxalate, mean ± SD
# T2 sequence (Q60492 whole entry): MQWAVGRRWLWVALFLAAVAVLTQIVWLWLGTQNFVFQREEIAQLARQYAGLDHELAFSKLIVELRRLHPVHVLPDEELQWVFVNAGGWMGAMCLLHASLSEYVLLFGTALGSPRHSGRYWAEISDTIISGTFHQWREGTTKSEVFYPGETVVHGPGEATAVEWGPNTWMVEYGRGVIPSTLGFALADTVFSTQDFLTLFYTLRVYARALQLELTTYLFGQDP
# [3] = molecular target: T2, σ1 receptor; settings: read-out: Ki σ1, cited from earlier work
# [4] = molecular target: T3, human VAChT (Homo sapiens, UniProt Q16572); settings: read-out: Ki VAChT; reference ligand; cited from earlier work
# T3 sequence (Q16572 1-532): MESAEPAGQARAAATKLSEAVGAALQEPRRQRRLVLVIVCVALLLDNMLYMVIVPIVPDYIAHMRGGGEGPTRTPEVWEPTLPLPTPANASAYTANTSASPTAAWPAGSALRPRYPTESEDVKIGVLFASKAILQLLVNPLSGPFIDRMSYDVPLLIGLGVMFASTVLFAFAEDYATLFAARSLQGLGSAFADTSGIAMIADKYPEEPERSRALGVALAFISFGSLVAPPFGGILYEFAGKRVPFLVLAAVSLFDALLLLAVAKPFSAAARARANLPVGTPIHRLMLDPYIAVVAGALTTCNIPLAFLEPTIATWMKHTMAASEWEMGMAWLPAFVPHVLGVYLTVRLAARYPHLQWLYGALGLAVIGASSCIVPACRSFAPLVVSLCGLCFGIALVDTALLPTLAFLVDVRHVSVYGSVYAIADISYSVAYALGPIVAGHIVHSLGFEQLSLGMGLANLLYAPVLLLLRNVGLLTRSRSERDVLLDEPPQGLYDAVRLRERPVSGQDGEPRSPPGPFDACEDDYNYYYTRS
# [5] = molecular target: T1, σ2 receptor; settings: read-out: Ki σ2; reference σ1 ligand; cited from earlier work
Compound,Selectivity ratio VAChT/ σ2 [1],Ki [1],Selectivity ratio VAChT/ σ1 [2],Ki [2],Ki ([3]; reference ligand),Ki [4],Ki [5],Ki ([3]; reference σ1 ligand)
"CS(=O)(=O)c1ccc(C(=O)C2CCN(C3Cc4ccccc4CC3O)CC2)cc1 (racemic) [(±)-7, (±)-(1-(3-Hydroxy-1,2,3,4-tetrahydronaphthalen-2-yl)piperidin-4-yl)(4-(methyl-sulfonyl)phenyl)methanone]",> 185,> 1 µM,3.1,0.0165 ± 0.0021 µM,–,–,–,–
"CSc1ccc(C(=O)C2CCN(C3Cc4ccccc4CC3O)CC2)cc1 (racemic) [(±)-8, (±)-(1-(3-Hydroxy-1,2,3,4-tetrahydronaphthalen-2-yl)piperidin-4-yl)(4-(methylthio)phenyl)methanone]",> 420,> 1 µM,7.2,0.0172 ± 0.004 µM,–,–,–,–
"O=C(c1ccc(SCCF)cc1)C1CCN(C2Cc3ccccc3CC2O)CC1 (racemic) [(±)-14a, (±)-(4-((2-Fluoroethyl)thio)phenyl)(1-(3-hydroxy-1,2,3,4-tetrahydronaph-thalen-2-yl)piperidin-4-yl)methanone]",> 420,–,7.0,–,–,–,–,–
"O=C(c1ccc(SCCCF)cc1)C1CCN(C2Cc3ccccc3CC2O)CC1 (racemic) [(±)-14b, (±)-(4-((3-Fluoropropyl)thio)phenyl)(1-(3-hydroxy-1,2,3,4-tetrahydronaph-thalen-2-yl)piperidin-4-yl)methanone]",> 430,> 1 µM,17.7,0.0408 ± 0.0041 µM,–,–,–,–
O[C@@H]1Cc2cccc(OCCF)c2C[C@H]1N1CCC(c2ccccc2)CC1 [(-)-FEOBV],–,–,10.7,–,0.209 ± 0.094 µM,0.0196 ± 0.0011 µM,–,–
"O=C(Cc1ccccc1F)NC1CCC(Cc2ccccc2)CC1 (centres unmarked) [YUN-122, N-(4-benzylcyclohexyl)-2-(2-fluorophenyl)acetamide]",–,–,–,–,–,–,0.667 ± 0.098 µM,0.0036 ± 0.0011 µM
(-)-vesamicol [reference compound],–,0.0345 ± 0.002 µM,–,–,–,–,–,–
